Experimental data as given in US6387906B1, “2,4,4-trisubstituted-1,3-dioxolane antifungals” (priority 1997, dated 2002).
Counter-ions that a name gives are not always drawn.

Tests used:
[1] = system: Candida kefyr; assay: Measurement of antifungal activity in vitro (lowest active dose) vs. Candida kefyr; type: cell-based; details: lowest concentration inhibiting growth below 35% of control growth; CYG broth, 37° C. for 48 h, turbidimetry
Procedure: (§1) Test compounds were dissolved at a concentration of 10^−2 M in dimethyl sulfoxide (DMSO) and diluted into CYG broth (Odds, F. C. Antimicrobial Agents and Chemotherapy 1992; 36: 1727-1737) to give a final concentration of 25 μM and, in most tests, 5 μM. For some compounds the tests were done at 100, 10, 1.0 and 0.1 μM. Cultures were inoculated with Candida.kefyr to an initial concentration of 10^4/ml and with Trichophyton rubrum to an equivalent concentration determined by turbidimetry. Cultures were incubated in the wells of microdilution plates at 37° C. for 48 h (C. kefyr) and at 30° C. for 5-7 days (T. rubrum). Growth in wells containing test compounds was estimated turbidimetrically as a percentage of growth in compound-free controls and the lowest concentration of compound that inhibited the growth of an isolate below 35% of control growth was recorded as the lowest active dose (LAD).

[2] = system: Trichophyton rubrum; assay: Measurement of antifungal activity in vitro (lowest active dose) vs. Trichophyton rubrum; type: cell-based; details: lowest concentration inhibiting growth below 35% of control growth; CYG broth, 30° C. for 5-7 days, turbidimetry
Procedure: as §1

| melting point | SMILES | LAD (μM) vs. C. keyr [1] | LAD (μM) vs. T. rubrum [2] |
| --- | --- | --- | --- |
| 186 °C | CC(C)N(C)C(=O)Nc1ccc(N2CCN(c3ccc(OCC4OCC(Cn5cncn5)(c5ccc(F)cc5F)O4)cc3)CC2)cc1 (stereo not drawn) (as salt: HCl) [Compound 54, (B-cis)-N-[4-[4-[4-[[4-(2,4-difluorophenyl)-4-(1H-1,2,4-triazol-1-yl-methyl)-1,3-dioxolan-2-yl]methoxy]phenyl]-1-piperazinyl]phenyl]-N′-methyl-N′-(1-methylethyl)urea] |  |  |
|  | CCCN1CCN(c2ccc(N3CCN(c4ccc(OCC5OCC(Cn6ccnc6)(c6ccc(Cl)cc6)O5)cc4)CC3)cc2)C1=O (racemic) [Compound 4] | ≦5 μM | ≦5 μM |
|  | CCCN1C(=O)N(c2ccc(N3CCN(c4ccc(OCC5OCC(Cn6ccnc6)(c6ccc(Cl)cc6)O5)cc4)CC3)cc2)CC1(C)C (racemic) [Compound 5] | ≦25 μM | ≦5 μM |
|  | CCCN1C(=O)N(c2ccc(N3CCN(c4ccc(OC[C@@H]5OC[C@@](Cn6cncn6)(c6ccc(Cl)cc6)O5)cc4)CC3)cc2)CC1(C)C (racemic) [Compound 9] | ≦25 μM | ≦25 μM |
|  | CCCN1C(=O)N(c2ccc(N3CCN(c4ccc(OC[C@@H]5OC[C@@](Cn6ccnc6)(c6ccc(F)cc6)O5)cc4)CC3)cc2)CC1(C)C (racemic) [Compound 12] | ≦25 μM | ≦5 μM |
|  | CCCN1C(=O)N(c2ccc(N3CCN(c4ccc(OC[C@@H]5OC[C@@](Cn6cncn6)(c6ccc(F)cc6)O5)cc4)CC3)cc2)CC1(C)C (racemic) [Compound 13] | ≦5 μM | ≦5 μM |
|  | CCN1C(=O)N(c2ccc(N3CCN(c4ccc(OC[C@@H]5OC[C@@](Cn6cncn6)(c6ccc(F)cc6F)O5)cc4)CC3)cc2)C(C)(C)C1=O (racemic) [Compound 19] | ≦5 μM | ≦25 μM |
|  | CCC1C(=O)N(c2ccc(N3CCN(c4ccc(OC[C@@H]5OC[C@@](Cn6cncn6)(c6ccc(F)cc6F)O5)cc4)CC3)cc2)C(=O)N1CC (mixture of isomers) [Compound 20] | ≦5 μM | >25 µM |
|  | CC(C)N1CCN(c2ccc(N3CCN(c4ccc(OC[C@@H]5OC[C@@](Cn6ccnc6)(c6ccc(F)cc6)O5)cc4)CC3)cc2)C1=O (racemic) [Compound 23] | ≦5 μM | ≦5 μM |
|  | CCN1CCN(c2ccc(N3CCN(c4ccc(OC[C@@H]5OC[C@@](Cn6ccnc6)(c6ccc(F)cc6)O5)cc4)CC3)cc2)C1=O (racemic) [Compound 24] | ≦25 μM | ≦5 μM |
|  | CCCN1CCN(c2ccc(N3CCN(c4ccc(OC[C@@H]5OC[C@@](Cn6ccnc6)(c6ccc(F)cc6)O5)cc4)CC3)cc2)C1=O (racemic) [Compound 25] | ≦5 μM | ≦5 μM |
|  | CCCCN1CCN(c2ccc(N3CCN(c4ccc(OC[C@@H]5OC[C@@](Cn6ccnc6)(c6ccc(F)cc6)O5)cc4)CC3)cc2)C1=O (racemic) [Compound 26] | ≦25 μM | ≦5 μM |
|  | CCN1CCN(c2ccc(N3CCN(c4ccc(OC[C@@H]5OC[C@@](Cn6ccnc6)(c6ccc(Cl)cc6)O5)cc4)CC3)cc2)C1=O (racemic) [Compound 27] | ≦5 μM | ≦5 μM |
|  | CC(C)N1CCN(c2ccc(N3CCN(c4ccc(OC[C@@H]5OC[C@@](Cn6ccnc6)(c6ccc(Cl)cc6)O5)cc4)CC3)cc2)C1=O (racemic) [Compound 28] | ≦25 μM | ≦5 μM |
|  | CCCCN1CCN(c2ccc(N3CCN(c4ccc(OC[C@@H]5OC[C@@](Cn6ccnc6)(c6ccc(Cl)cc6)O5)cc4)CC3)cc2)C1=O (racemic) [Compound 29] | ≦25 μM | ≦5 μM |
|  | CCCN1CCN(c2ccc(N3CCN(c4ccc(OC[C@@H]5OC[C@@](Cn6ccnc6)(c6ccc(F)cc6F)O5)cc4)CC3)cc2)C1=O (racemic) [Compound 30] | ≦5 μM | ≦5 μM |

| melting point | SMILES | LAD (μM) vs. C. keyr [1] | LAD (μM) vs. T. rubrum [2] |
| --- | --- | --- | --- |
|  | CCN1CCN(c2ccc(N3CCN(c4ccc(OC[C@@H]5OC[C@@](Cn6ccnc6)(c6ccc(F)cc6F)O5)cc4)CC3)cc2)C1=O (racemic) [Compound 32] | ≦25 μM | ≦5 μM |
|  | CC(C)N1CCN(c2ccc(N3CCN(c4ccc(OC[C@@H]5OC[C@@](Cn6ccnc6)(c6ccc(F)cc6F)O5)cc4)CC3)cc2)C1=O (racemic) [Compound 34] | ≦5 μM | ≦5 μM |
|  | CCC(C)N1CCN(c2ccc(N3CCN(c4ccc(OC[C@@H]5OC[C@@](Cn6ccnc6)(c6ccc(F)cc6F)O5)cc4)CC3)cc2)C1=O (mixture of isomers) [Compound 35] | ≦25 μM | ≦5 μM |
|  | CC(C)N1CCN(c2ccc(N3CCN(c4ccc(OC[C@@H]5OC[C@@](Cn6cncn6)(c6ccc(F)cc6)O5)cc4)CC3)cc2)C1=O (racemic) [Compound 40] | ≦25 μM | ≦5 μM |
|  | CN1CCN(c2ccc(N3CCN(c4ccc(OC[C@@H]5OC[C@@](Cn6ccnc6)(c6ccc(F)cc6)O5)cc4)CC3)cc2)C1=O (racemic) [Compound 42] | ≦5 μM | ≦5 μM |
|  | CCC(CC)N1CCN(c2ccc(N3CCN(c4ccc(OC[C@@H]5OC[C@@](Cn6ccnc6)(c6ccc(F)cc6)O5)cc4)CC3)cc2)C1=O (racemic) [Compound 44] | ≦5 μM | ≦5 μM |
|  | CCC(C)N1CCN(c2ccc(N3CCN(c4ccc(OC[C@@H]5OC[C@@](Cn6cncn6)(c6ccc(F)cc6F)O5)cc4)CC3)cc2)C1=O (relative stereo) [Compound 21, cis-1-[4-[4-[4-[[4-(2,4-difluorophenyl)-4-(1H-1,2,4-triazol-1-ylmethyl)-1,3-dioxolan-2-yl]methoxy]phenyl]-1-piperazinyl]phenyl]-3-(1-methylpropyl)-2-imidazolidinone] | ≦0.1 μM | ≦0.1 μM |
|  | CCCn1c(=O)n(CC)c(=O)n(-c2ccc(N3CCN(c4ccc(OC[C@H]5OC[C@](Cn6cncn6)(c6ccc(F)cc6F)O5)cc4)CC3)cc2)c1=O (relative stereo) [Compound 47, (2S-cis)-1-ethyl-3-[4-[4-[4-[[4-(2,4-difluorophenyl)-4-(1H-1,2,4-triazol-1-ylmethyl)-1,3-dioxolan-2-yl]methoxy]-phenyl]-1-piperazinyl]phenyl]-5-propyl-1,3,5-triazine-2,4,6(1H,3H,5H)-trione] | >100 µM | 1 µM |
|  | CCN1C(=O)N(c2ccc(N3CCN(c4ccc(OC[C@@H]5OC[C@@](Cn6cncn6)(c6ccc(F)cc6F)O5)cc4)CC3)cc2)C(=O)C(C)(C)C1=O (relative stereo) [Compound 48, (2R-cis)-1-ethyl-3-[4-[4-[4-[[4-(2,4-diflurorophenyl)-4-(1H-1,2,4-triazol-1-ylmethyl)-1,3-dioxolan-2-yl]methoxy]phenyl]-1-piperazinyl]phenyl]-5,5-dimethyl-2,4,6(1H,3H,5H)-pyrimidinetrione] | 10 µM | >100 µM |
|  | CC(C)N1CCN(c2ccc(N3CCN(c4ccc(OC[C@@H]5OC[C@@](Cn6cncn6)(c6ccc(F)cc6F)O5)cc4)CC3)cc2)C1=O (stereo in doubt) [Compound 41] | ≦0.1 μM | ≦0.1 μM |
|  | CC(C)N1CCN(c2ccc(N3CCN(c4ccc(OC[C@H]5OC[C@](Cn6cncn6)(c6ccc(F)cc6F)O5)cc4)CC3)cc2)C1=O.Cl (stereo in doubt) [Compound 52, (2S-cis)-1-[4-[4-[4-[[4-(2,4-difluorophenyl)-4-(1H-1,2,4-triazol-1-ylmethyl)-1,3-dioxolan-2-yl]methoxy]phenyl]-1-piperazinyl]phenyl]-3-(1-methylethyl)-2-imidazolidinone hydrochloride (1:1)] | ≦0.1 μM | ≦0.1 μM |
|  | CCCn1c(=O)n(CC)c(=O)n(-c2ccc(N3CCN(c4ccc(OC[C@@H]5OC[C@@](Cn6cncn6)(c6ccc(F)cc6F)O5)cc4)CC3)cc2)c1=O [Compound 46] | 1 µM | 100 µM |
|  | CCN1C(=O)N(c2ccc(N3CCN(c4ccc(OC[C@H]5OC[C@](Cn6cncn6)(c6ccc(F)cc6F)O5)cc4)CC3)cc2)C(=O)C(C)(C)C1=O [Compound 49] | 1 µM | 1 µM |
|  | CC(C)N1CCN(c2ccc(N3CCN(c4ccc(OC[C@@H]5OC[C@@](Cn6cncn6)(c6ccc(F)cc6F)O5)cc4)CC3)cc2)C1=O [Compound 50] | 1 µM | 1 µM |
| 196 °C | CC(C)NC(=O)Nc1ccc(N2CCN(c3ccc(OCC4OCC(Cn5cncn5)(c5ccc(F)cc5F)O4)cc3)CC2)cc1 (stereo not drawn) [Compound 53, (2S-cis)-N-[4-[4-[4-[[4-(2,4-difluorophenyl)-4-(1H-1,2,4-triazol-1-ylmetyl)-1,3-dioxolan-2-yl]-methoxy]phenyl]-1-piperazinyl]phenyl]-N′-(1-methylethyl)urea] |  |  |
